# Data reported in US6346531B1, “G-CSF mimetics” (SmithKline Beecham Corporation, priority 1998, dated 2002).
# Columns and labels:
# human CFU-g = experiment: CFU-g assay (colony assay), human; type: cell-based; conditions: potency as G-CSF mimetic
# Description: (§1) In determining potency as G-CSF mimetics, the following assay is employed: CFU-g Assay
# (§2) The compounds of present invention are tested for potency as G-CSF mimetics in a CFU-g assay, an example of which is described in King AG, Talmadge J., Badger AM, Pelus LM. Regulation of colony stimulating activity production from bone marrow stromal cells by the hematoregulatory peptide, HP-5. Exp. Hematol. 20:223-228, 1992.
# mouse CFU-g = experiment: CFU-g assay (colony assay), mouse; type: cell-based; conditions: potency as G-CSF mimetic
# Description: as §1, §2
smiles,measurement,setting,value
"O=c1n2c(nc3n1[C@]1(c4ccccn4)n4c(nc5nc6ccccc6n5c4=O)N[C@]1(c1ccccn1)N3)nc1ccccc12 [Compound A, 7a, 17a-bis(2-pyridyl)-16,19-dioxo-5,7a, 10,16,17a, 19-hexahydro-benzimidazo[2′,1′:4,5][1,3,5]triazino[1,2-a]benzimidazo[2″,1″:4′,5′][1,3,5]triazino[1′,2′:1,2]imidazo[4,5-d]imidazole]","human CFU-g, colony assay/% Gmax @ 3 uM",human CFU-g,41 % Gmax
same,"mouse CFU-g, colony assay/% Gmax @ 3 uM",mouse CFU-g,43 % Gmax
